Laboratory results from article PMC2774722 (Clinical cancer research : an official journal of the …, 2009).
pIC50: −log10 of the molar value. Where “and” joins values, the source holds several entries; their conditions need not be identical. Equal values may be shown once. Read-outs that look alike come from different tables or passages of the source. Each block holds one compound with its values, some of them ahead of it.

What was measured:
ABCC4 [1] = molecular target: T1, ABCC4 (Homo sapiens, UniProt O15439); test: Inhibition of ABCC4-mediated PMEA efflux in Saos-2 cells; assay type: cell-based; conditions: for Inhibition of PMEA efflux: 20 μM sorafenib or sunitinib, or 50 μM MK571, 4 h, cells overexpressing ABCC4
T1 sequence (O15439 1-1325): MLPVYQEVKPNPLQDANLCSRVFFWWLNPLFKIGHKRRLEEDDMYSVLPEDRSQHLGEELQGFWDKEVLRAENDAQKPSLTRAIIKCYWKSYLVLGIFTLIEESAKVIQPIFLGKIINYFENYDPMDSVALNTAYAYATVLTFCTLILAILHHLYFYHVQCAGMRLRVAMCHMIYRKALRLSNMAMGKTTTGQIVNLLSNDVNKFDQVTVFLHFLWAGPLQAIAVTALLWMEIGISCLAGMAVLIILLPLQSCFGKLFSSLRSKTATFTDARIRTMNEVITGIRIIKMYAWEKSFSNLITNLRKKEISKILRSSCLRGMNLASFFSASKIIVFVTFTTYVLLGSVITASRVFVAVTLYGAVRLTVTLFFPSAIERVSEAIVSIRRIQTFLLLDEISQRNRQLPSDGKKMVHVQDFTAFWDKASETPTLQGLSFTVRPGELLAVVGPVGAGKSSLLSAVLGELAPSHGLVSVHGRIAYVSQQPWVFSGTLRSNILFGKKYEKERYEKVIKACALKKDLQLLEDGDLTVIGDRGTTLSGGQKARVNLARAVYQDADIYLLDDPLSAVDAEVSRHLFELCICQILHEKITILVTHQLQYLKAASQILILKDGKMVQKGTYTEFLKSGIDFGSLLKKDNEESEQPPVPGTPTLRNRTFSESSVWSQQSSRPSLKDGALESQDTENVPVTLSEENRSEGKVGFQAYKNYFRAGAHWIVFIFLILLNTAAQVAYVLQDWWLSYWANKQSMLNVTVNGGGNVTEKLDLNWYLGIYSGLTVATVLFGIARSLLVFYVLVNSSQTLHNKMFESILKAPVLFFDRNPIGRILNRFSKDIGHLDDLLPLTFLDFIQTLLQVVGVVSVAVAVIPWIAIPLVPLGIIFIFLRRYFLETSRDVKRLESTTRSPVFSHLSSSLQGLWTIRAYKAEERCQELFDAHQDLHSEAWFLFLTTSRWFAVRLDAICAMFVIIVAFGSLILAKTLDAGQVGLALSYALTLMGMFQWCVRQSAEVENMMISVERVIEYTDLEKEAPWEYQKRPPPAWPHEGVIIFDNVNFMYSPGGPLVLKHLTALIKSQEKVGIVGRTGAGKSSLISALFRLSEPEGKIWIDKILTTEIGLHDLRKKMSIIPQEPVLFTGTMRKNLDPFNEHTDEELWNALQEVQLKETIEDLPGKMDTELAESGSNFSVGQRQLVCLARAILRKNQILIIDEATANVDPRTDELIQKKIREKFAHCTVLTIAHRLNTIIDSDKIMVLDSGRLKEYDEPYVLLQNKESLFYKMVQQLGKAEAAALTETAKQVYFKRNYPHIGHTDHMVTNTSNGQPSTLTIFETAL

ABCC2 [2] = molecular target: T2, ABCC2 (Homo sapiens, UniProt Q92887); test: Inhibition of ABCC2-mediated docetaxel efflux; assay type: cell-based; conditions: for Inhibition of docetaxel efflux: 20 μM sorafenib or sunitinib, or 50 μM MK571, 5 μM docetaxel, 4 h, cells overexpressing ABCC2
T2 sequence (Q92887 whole entry): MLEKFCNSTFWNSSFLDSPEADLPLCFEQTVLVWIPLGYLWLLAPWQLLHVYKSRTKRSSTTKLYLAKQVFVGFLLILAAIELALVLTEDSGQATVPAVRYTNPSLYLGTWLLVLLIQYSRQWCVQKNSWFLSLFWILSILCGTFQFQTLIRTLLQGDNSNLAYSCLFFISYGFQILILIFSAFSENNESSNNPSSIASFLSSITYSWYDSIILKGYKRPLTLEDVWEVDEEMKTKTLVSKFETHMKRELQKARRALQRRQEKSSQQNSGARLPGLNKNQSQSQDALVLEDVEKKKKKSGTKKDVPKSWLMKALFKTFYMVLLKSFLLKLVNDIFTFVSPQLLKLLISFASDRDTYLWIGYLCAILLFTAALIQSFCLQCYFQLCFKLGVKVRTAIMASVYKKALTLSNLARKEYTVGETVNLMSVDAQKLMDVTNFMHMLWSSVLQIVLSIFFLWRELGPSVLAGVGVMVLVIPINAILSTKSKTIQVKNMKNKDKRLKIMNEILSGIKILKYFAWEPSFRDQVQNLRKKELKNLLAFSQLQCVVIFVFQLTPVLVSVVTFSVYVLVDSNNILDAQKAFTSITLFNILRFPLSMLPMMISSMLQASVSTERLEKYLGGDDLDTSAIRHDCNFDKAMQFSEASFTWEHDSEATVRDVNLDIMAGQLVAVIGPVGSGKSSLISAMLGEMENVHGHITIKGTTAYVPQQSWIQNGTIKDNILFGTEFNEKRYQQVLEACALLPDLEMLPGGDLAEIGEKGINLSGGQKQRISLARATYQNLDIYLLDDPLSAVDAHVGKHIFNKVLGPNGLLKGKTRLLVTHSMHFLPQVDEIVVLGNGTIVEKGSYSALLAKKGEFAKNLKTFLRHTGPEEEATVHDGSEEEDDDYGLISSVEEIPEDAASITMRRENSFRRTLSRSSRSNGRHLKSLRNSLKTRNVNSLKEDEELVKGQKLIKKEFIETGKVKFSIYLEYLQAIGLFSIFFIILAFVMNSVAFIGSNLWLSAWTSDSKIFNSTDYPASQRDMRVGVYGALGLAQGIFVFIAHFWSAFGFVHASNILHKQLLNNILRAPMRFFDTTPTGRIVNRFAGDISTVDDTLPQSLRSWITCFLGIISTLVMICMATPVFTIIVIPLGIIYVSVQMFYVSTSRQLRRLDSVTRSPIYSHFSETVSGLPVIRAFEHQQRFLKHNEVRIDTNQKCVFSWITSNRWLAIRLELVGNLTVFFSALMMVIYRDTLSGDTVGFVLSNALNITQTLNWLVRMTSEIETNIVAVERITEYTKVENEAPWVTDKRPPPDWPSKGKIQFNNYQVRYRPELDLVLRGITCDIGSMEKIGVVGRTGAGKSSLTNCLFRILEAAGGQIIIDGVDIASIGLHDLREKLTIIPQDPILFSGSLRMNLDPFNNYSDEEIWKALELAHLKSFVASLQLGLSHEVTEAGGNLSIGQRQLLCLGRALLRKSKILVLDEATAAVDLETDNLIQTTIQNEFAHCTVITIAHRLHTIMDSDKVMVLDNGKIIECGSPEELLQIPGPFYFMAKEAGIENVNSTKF

[3] = ref [39], cited from earlier work
[4] = wild-type murine models, cited from earlier work
Abcb1 [5] = conditions: mice lacking ABCB1; ref [42]; cited from earlier work
CYP3a = conditions: CYP3a-/- knockout mice; ref [43]; cited from earlier work
ABCB1 or ABCC2 = conditions: mice lacking one or both transporters (ABCB1, ABCC2); ref [40]; cited from earlier work
Abcb1 and Abcg2 = conditions: mice lacking both Abcb1 and Abcg2; ref [6], [44]; cited from earlier work
Abcb1 [6] = conditions: Abcb1 knockout mice; ref [6], [44]; cited from earlier work
Abcb1 [7] = conditions: brain concentration at 4 h / plasma AUC0-4h; oral sorafenib 40 mg/kg or sunitinib 20 mg/kg
[8] = Brain penetration and brain concentration in mice; assay type: in vivo
ABCC4 [9] = molecular target: T1, ABCC4; test: Accumulation in Saos-2 cells overexpressing ABCC4; assay type: in vitro ADME; conditions: 1 μM, 4 h
ABCG2 [10] = molecular target: ABCG2 (Homo sapiens, UniProt Q9UNQ0); conditions: 1 μM, 4 h, Saos-2 cells
Sequence of ABCG2 (Homo sapiens, UniProt Q9UNQ0) (Q9UNQ0 whole entry): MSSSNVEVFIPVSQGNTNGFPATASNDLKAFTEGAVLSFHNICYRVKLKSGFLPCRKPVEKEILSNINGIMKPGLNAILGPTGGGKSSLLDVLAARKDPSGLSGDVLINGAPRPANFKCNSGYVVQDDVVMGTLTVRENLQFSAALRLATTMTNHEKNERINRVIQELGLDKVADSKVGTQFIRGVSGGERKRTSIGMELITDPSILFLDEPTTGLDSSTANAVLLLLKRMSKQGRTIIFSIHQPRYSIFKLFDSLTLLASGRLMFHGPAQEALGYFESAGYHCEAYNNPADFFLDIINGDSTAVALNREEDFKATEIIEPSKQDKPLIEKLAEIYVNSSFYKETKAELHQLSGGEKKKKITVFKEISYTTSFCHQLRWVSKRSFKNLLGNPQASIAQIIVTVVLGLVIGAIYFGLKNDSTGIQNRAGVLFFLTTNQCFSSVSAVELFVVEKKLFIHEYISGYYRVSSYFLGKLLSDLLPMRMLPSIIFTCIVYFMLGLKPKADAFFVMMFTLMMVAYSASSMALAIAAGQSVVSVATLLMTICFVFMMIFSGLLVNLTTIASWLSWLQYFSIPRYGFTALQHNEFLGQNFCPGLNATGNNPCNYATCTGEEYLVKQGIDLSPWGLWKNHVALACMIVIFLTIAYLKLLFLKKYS

[11] = system: OATP1A2, OATP1B1, OATP1B3, OCT1, OAT2, OCTN1 and OCTN2; conditions: oocytes or HEK293 cells; sorafenib 0.35-1.5 μM or sunitinib 0.15-0.45 μM, 1 h
ABCB1 [12] = molecular target: T3, ABCB1 (Homo sapiens, UniProt P08183); test: Inhibition of calcein-AM efflux in LLC-PK1 cells expressing ABCB1; assay type: cell-based
T3 sequence (P08183 whole entry): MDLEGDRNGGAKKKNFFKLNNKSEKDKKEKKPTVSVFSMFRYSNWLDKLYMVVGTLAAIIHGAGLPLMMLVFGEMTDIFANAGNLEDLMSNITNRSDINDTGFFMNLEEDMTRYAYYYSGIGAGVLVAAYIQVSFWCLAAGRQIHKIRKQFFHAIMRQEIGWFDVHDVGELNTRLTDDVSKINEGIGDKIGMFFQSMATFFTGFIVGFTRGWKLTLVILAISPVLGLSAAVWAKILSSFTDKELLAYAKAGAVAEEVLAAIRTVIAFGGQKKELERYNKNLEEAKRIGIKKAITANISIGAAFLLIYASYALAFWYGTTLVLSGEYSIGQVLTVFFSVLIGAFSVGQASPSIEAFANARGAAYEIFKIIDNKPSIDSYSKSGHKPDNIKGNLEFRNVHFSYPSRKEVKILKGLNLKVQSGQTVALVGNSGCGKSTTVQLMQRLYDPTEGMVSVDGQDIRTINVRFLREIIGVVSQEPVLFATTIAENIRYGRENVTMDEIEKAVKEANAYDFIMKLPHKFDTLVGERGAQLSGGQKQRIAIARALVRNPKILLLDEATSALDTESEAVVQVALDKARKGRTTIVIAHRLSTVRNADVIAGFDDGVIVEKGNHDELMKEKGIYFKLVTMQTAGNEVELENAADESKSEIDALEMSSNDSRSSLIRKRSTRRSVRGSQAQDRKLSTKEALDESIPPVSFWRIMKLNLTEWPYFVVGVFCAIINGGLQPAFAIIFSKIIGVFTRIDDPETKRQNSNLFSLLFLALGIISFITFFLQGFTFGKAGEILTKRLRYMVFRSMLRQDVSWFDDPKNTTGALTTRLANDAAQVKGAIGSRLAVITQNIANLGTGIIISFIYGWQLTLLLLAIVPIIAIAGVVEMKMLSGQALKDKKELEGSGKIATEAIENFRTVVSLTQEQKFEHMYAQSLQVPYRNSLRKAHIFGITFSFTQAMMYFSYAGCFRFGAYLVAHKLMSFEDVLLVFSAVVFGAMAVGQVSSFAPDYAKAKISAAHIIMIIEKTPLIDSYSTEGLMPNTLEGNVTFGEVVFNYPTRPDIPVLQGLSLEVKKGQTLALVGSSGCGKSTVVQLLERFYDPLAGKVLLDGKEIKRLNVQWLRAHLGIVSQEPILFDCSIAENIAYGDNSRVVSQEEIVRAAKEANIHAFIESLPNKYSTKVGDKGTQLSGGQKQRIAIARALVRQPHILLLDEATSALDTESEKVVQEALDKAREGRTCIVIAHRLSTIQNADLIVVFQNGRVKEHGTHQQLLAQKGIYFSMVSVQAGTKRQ

ABCC2 [13] = molecular target: T2, ABCC2; test: Vanadate sensitive ATPase assay of ABCC2 in membrane vesicles; assay type: biochemical; conditions: activation test, 0.14-300 μM, 10 min, concentration dependent
ABCC2 [14] = molecular target: T2, ABCC2; test: Accumulation in MDCKII cells overexpressing ABCC2; assay type: in vitro ADME; conditions: 1 μM, 4 h
Abcb1 [15] = conditions: single oral dose, sorafenib 40 mg/kg or sunitinib 20 mg/kg
[16] = system: acute myelogenous leukemia; conditions: sorafenib with cytarabine/idarubicin, cited from earlier work
ABCB1 [17] = molecular target: T3, ABCB1; test: Transcellular transport in LLC-PK1 cells expressing ABCB1; assay type: in vitro ADME; conditions: 10 μM, LLC-PK1 cells overexpressing ABCB1
ABCG2 [18] = conditions: ref [38]; cited from earlier work
OCTN2 = molecular target: T4, OCTN2 (Homo sapiens, UniProt O76082); test: Uptake in HEK293 cells overexpressing OCTN2; assay type: in vitro ADME; conditions: HEK293 cells expressing OCTN2, 1 h
T4 sequence (O76082 1-557): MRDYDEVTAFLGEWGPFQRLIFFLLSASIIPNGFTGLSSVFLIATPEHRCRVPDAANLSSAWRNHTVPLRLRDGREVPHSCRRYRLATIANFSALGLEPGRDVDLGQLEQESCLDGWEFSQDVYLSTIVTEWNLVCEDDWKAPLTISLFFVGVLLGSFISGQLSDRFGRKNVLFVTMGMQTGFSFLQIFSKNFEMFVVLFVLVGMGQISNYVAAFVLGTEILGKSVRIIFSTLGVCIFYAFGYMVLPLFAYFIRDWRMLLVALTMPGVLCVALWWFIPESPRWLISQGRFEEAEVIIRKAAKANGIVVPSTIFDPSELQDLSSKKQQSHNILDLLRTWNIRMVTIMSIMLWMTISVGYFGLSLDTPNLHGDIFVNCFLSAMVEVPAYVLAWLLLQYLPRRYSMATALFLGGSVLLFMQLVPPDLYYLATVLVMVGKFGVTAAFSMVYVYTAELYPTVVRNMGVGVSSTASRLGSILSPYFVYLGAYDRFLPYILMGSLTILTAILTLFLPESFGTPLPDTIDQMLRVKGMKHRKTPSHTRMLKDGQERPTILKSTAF

ABCB1 [19] = conditions: ref [38]; cited from earlier work
[20] = 38 patients with newly diagnosed AML

- Inhibition of PMEA efflux (ABCC4 [1]): ~100%
- Inhibition of docetaxel efflux (ABCC2 [2]): approximately 90%
SMILES: CN(C)C(=O)CCSC(SCCC(=O)O)c1cccc(/C=C/c2ccc3ccc(Cl)cc3n2)c1 (stereo not drawn) [MK571]

SMILES: CCc1c2c(nc3ccc(O)cc13)-c1cc3c(c(=O)n1C2)COC(=O)[C@]3(O)CC [SN-38]
- Change in plasma exposure when co-administered with sorafenib [3]: minimal to no increases

SMILES: Cc1nc(Nc2ncc(C(=O)Nc3c(C)cccc3Cl)s2)cc(N2CCN(CCO)CC2)n1 [dasatinib]
- Brain penetration ([4]; ref [45]): 3-8%

SMILES: CC(=O)O[C@@]12CO[C@@H]1C[C@H](O)[C@@]1(C)C(=O)[C@H](O)C3=C(C)[C@@H](OC(=O)[C@H](O)[C@@H](NC(=O)OC(C)(C)C)c4ccccc4)C[C@@](O)([C@@H](OC(=O)c4ccccc4)[C@H]21)C3(C)C [docetaxel]
- Plasma exposure compared to wild-type mice (Abcb1 [5]): unchanged
- Exposure compared to wild-type counterparts (CYP3a): significanty increased

SMILES: COc1cccc2c1C(=O)c1c(O)c3c(c(O)c1C2=O)C[C@@](O)(C(=O)CO)C[C@@H]3O[C@H]1C[C@H](N)[C@H](O)[C@H](C)O1 [doxorubicin]
- Increase in plasma exposure in combination with sorafenib ([3]; phase I trial): 20-30%
- Plasma exposure compared to wild-type mice (ABCB1 or ABCC2): unaltered

SMILES: Cc1ccc(NC(=O)c2ccc(CN3CCN(C)CC3)cc2)cc1Nc1nccc(-c2cccnc2)n1 [imatinib]
- Brain penetration ([4]; ref [6], [44]): 2-10%
- Increase in brain penetration compared to wild-type mice (Abcb1 and Abcg2): 12.6 fold
- Increase in brain penetration compared to wild-type mice (Abcb1 [6]): 3.6 fold

SMILES: CCc1c2c(nc3ccc(OC(=O)N4CCC(N5CCCCC5)CC4)cc13)-c1cc3c(c(=O)n1C2)COC(=O)[C@]3(O)CC [irinotecan]
- Change in plasma exposure when co-administered with sorafenib [3]: minimal to no increases

- Increase in brain penetration in knockout animals versus controls (Abcb1 [7]): 1.9 fold
- concentration at 4 h ([8]; FVB, mouse, brain, po, 40 mg/kg): ~300 ng/mL and 645 nM
- Brain penetration ([8]; wild-type mice, brain concentration at 4 h / plasma AUC0-4h, oral sorafenib 40 mg/kg or sunitinib 20 mg/kg): 3%
- Transport by ABCC4 (ABCC4 [9]): not transported
- Transport by ABCG2 (ABCG2 [10]): not transported
- pIC50 (ABCB1 [12]): 4.78
- Effect on baseline ATPase activity of ABCC2 (ABCC2 [13]): inhibited
- Transport by ABCC2 (ABCC2 [14]): not transported
- Plasma AUC0-4h, wild type versus Abcb1 knockout mice (Abcb1 [15]): not significantly different
- Transport by ABCB1 (ABCB1 [17]): not transported
- inhibition at 20 µM (ABCC4 [1]; SAOS-2, read-out: Inhibition of PMEA efflux): ~70%
- inhibition at 20 µM (ABCC2 [2]; read-out: Inhibition of docetaxel efflux): ~50%
SMILES: CNC(=O)c1cc(Oc2ccc(NC(=O)Nc3ccc(Cl)c(C(F)(F)F)c3)cc2)ccn1 [sorafenib]
- Transport (uptake) by solute carriers compared to control [11]: none of the transporters tested facilitated
- Overall response rate [16, 20]: 83%
- Patients achieving a complete response [16, 20]: 70%
- Probability of survival ([16]; at 9 months follow-up): 82%
- Remission duration ([16]; at 9 months follow-up): 72%

- Increase in brain penetration in knockout animals versus controls (Abcb1 [7]): 2.9 fold
- Transport by ABCG2 (ABCG2 [10]): not transported
- Plasma AUC0-4h, wild type versus Abcb1 knockout mice (Abcb1 [15]): not significantly different
- Transport over control by OCTN2 (OCTN2): 130%
- Transport by ABCB1 (ABCB1 [17]): substantially reduced
- Inhibition of PMEA efflux (ABCC4 [1]): ~80%
- Inhibition of docetaxel efflux (ABCC2 [2]): ~80%
SMILES: CCN(CC)CCNC(=O)c1c(C)[nH]c(/C=C2\C(=O)Nc3ccc(F)cc32)c1C [sunitinib]
- Transport (uptake) by solute carriers compared to control [11]: none of the transporters tested facilitated
- Reversal of topotecan resistance mediated by ABCG2 (ABCG2 [18]): completely reverse
- Reversal of ABCB1-mediated resistance to romidepsin (ABCB1 [19]): partially reverse
